This note sets out measurements from patent US11241013B2, “Benzimidazole compounds as agricultural chemicals” (REDAG CROP PROTECTION LTD, priority 2017, dated 2022).

Assay type in all cases: cell-based
One experiment deals with Pythium ultimum. The experiment in a line: Amended agar assay. Also on record: key to % control Pythium ultimum 2 ppm / % control Pythium ultimum 20 ppm: D: no control detected at this concentration; C: up to 50% control; B: from 50 to 99% control; A: a control of greater than 99%, i.e. no detectable colony growth. The settings on record: for inhibition of growth at 20 ppm / inhibition of growth at 2 ppm: Globisporangium ultimum; for inhibition of growth at 20 ppm / inhibition of growth at 2 ppm / % control Pythium ultimum 20 ppm / % control Pythium ultimum 2 ppm: amended PDA agar, % reduction in colony growth vs control plate, 18° C.; for EC50 Pythium ultimum: amended agar assay, descending concentrations with 5-fold dilutions. As to the method: (§1) Testing was carried out on potato dextrose agar (PDA) amended with each compound at a test concentration of typically 20 ppm or 2 ppm. Amended agar was poured into three replicate 9 cm petri dishes. Each replicate dish was inoculated in the centre with a 5 mm agar plug taken from the leading edge of a culture aged between 2 and 7 days old; the age of the culture was dependant on the growth rate of the pathogen being tested. The test pathogens were Pythium ultimum and Phytophthora cinnamomi. Plates were incubated at 18° C. and the diameter of each colony measured before growth on the fastest growing plate reached the plate edge. This varied between 2 and 7 days depending on the growth rate of test pathogens. The % reduction in colony growth compared to the control plate was calculated for each pathogen. The results are provided in Table 1, in which D represents no control detected at this concentration; C represents up to 50% control; B from 50 to 99% control; and A represents a control of greater than 99%, i.e. no detectable colony growth.
(§2) Alternatively, or in addition, the same assay was conducted at descending test concentrations with 5-fold dilutions typically down to 0.032 ppm though sometimes as low as 0.00026 ppm, and an EC50 (the concentration at which 50% control would be achieved) was determined. The results are provided in Table 1 in which G represents no control detected at 20 ppm, F represents an EC50 of ≥20 ppm and E represents an EC50 of less than 20 ppm.

For the next experiment, the system named is Phytophthora cinnamomi. Description: Amended agar assay. Details: key to % control Phytophthora cinnamomi 20 ppm: D: no control detected at this concentration; C: up to 50% control; B: from 50 to 99% control; A: a control of greater than 99%, i.e. no detectable colony growth. The conditions noted are these: for % control Phytophthora cinnamomi 20 ppm: amended PDA agar, % reduction in colony growth vs control plate, 18° C.; for EC50 Phytophthora spp. (marked *: Phytophthora cinnamomi): values marked *: amended agar assay, descending concentrations with 5-fold dilutions. As to the method: as §1, §2

For experiment [1], the system named is Phytophthora cactorum. The experiment in a line: 96 well plate test. Details: key: G: no control detected at 20 ppm; F: an EC50 of ≥20 ppm; an EC50 of less than 20 ppm. The conditions noted are these: 96 well plate assay, agar amended to 20, 2, 0.2 and 0.02 ppm, assessed after 2 to 3 days. As to the method:
(§3) Compounds were screened in 96 well plates with 10 compounds per plate. Each compound was screened using agar amended to 20, 2, 0.2 and 0.02 ppm, with proline at 50 and 10 ppm and 0.2% DMSO used as controls. Each test concentration and standard was replicated twice on a plate. Compounds were screened against Phytophthora cactorum. The agar used in the test is a 1% potato dextrose agar. 1000 spores/mL agar were added to the appropriate agar. A ×10 stock solution in 2% DMSO was produced for each dose i.e. 200, 20, 2 and 0.2 ppm, and 10 μl of this added to the appropriate wells on the plate. An equivalent amount of 2% DMSO and proline stock at 500 and 100 ppm were added for the controls. To each well 90 μl of the appropriate agar spore suspension was added to give the required final well concentrations. Plates were incubated at room temperature (18° C.) and assessed after 2 to 3 days. The amount of pathogen growth in each well was compared to the DMSO controls and an EC50 concentration was calculated. The results are provided in Table 1 in which H represents no control detected at 20 ppm, G represents no control detected at 2 ppm (where the highest test concentration in the assay was 2 ppm), F represents an EC50 of ≥20 ppm, E represents an EC50 of less than 20 ppm.

The test system of experiment [2] is Phytophthora cactorum. Description: 96 well plate test. Details: key: H: no control detected at 20 ppm; G: no control detected at 2 ppm (where the highest test concentration in the assay was 2 ppm); F: an EC50 of ≥20 ppm; an EC50 of less than 20 ppm. The conditions noted are these: 96 well plate assay, agar amended to 20, 2, 0.2 and 0.02 ppm, assessed after 2 to 3 days. As for the experimental part: as §3

Each structure is given as a SMILES string. Where only a bound is given, the exact number is not on record here.

A word on the inhibition of growth: it is how much of the control response was suppressed. Molecule `Cn1nnnc1-n1c(OCc2cccc(N)n2)nc2ccccc21` [Example 1, 6-(((1-(1-Methyl-1H-tetrazol-5-yl)-1H-benzo[d]imidazol-2-yl)oxy)methyl)pyridin-2-amine] yielded an inhibition of growth at 20 ppm with Pythium ultimum greater than 99%. Besides, the “% control Phytophthora cinnamomi 20 ppm” value in the experiment with Phytophthora cinnamomi is listed as “B (from 50 to 99% control)”.
Regarding `Cn1nnnc1-n1c(OCc2ccccn2)nc2ccc(F)cc21` [Example 20], the “EC50 Pythium ultimum” value with Pythium ultimum is on record as “E (an EC50 of less than 20 ppm)”. For the same molecule, the “EC50 Phytophthora spp. (marked *: Phytophthora cinnamomi)” value with Phytophthora cinnamomi is listed as “E* (an EC50 of less than 20 ppm)”.
For `Cn1nnnc1-n1c(OCCc2ccccn2)nc2ccccc21` [Example 25], the “EC50 Phytophthora spp. (Phytophthora cactorum)” value in the experiment with Phytophthora cactorum [1] was “H”. Also, the inhibition of growth at 2 ppm in the experiment on Pythium ultimum was less than 50%.
Turning to `Cc1cccnc1-n1c(OCc2ccccn2)nc2ccccc21` [Example 26], the “% control Pythium ultimum 20 ppm” value in the experiment with Pythium ultimum was “D”. In the experiment with Phytophthora cinnamomi, the “% control Phytophthora cinnamomi 20 ppm” value is reported as “D”.
Regarding `c1ccc(COc2nc3ccccc3n2-c2ccccn2)nc1` [Example 27], the inhibition of growth at 20 ppm in the experiment with Pythium ultimum was less than 50%. For the same molecule, in the experiment on Phytophthora cinnamomi, the “% control Phytophthora cinnamomi 20 ppm” value is recorded as “D”.
For the molecule `Cn1nnnc1-n1c(OCc2cccc(N)n2)nc2ccc(Br)cc21` [Example 28], the “EC50 Pythium ultimum” value in the experiment with Pythium ultimum is recorded as “E (an EC50 of less than 20 ppm)”. The “EC50 Phytophthora spp. (marked *: Phytophthora cinnamomi)” value with Phytophthora cinnamomi is “E* (an EC50 of less than 20 ppm)”.
For the molecule `Cn1nnnc1-n1c(OCc2ccccn2)nc2ccccc21` [Example 29], in the experiment with Pythium ultimum, the inhibition of growth at 20 ppm was greater than 99% and the “EC50 Pythium ultimum” value was “E (an EC50 of less than 20 ppm)”. In addition, in the experiment on Phytophthora cinnamomi, the “% control Phytophthora cinnamomi 20 ppm” value is “A (a control of greater than 99%, i.e. no detectable colony growth)” and the “EC50 Phytophthora spp. (marked *: Phytophthora cinnamomi)” value was “E* (an EC50 of less than 20 ppm)”.
Turning to `Cn1nnnc1-n1c(OCc2cccc(NS(C)(=O)=O)n2)nc2ccccc21` [Example 31, N-(6-(((1-(1-Methyl-1H-tetrazol-5-yl)-1H-benzo[d]imidazol-2-yl)oxy)methyl)pyridin-2-yl)methanesulfonamide], in the experiment on Pythium ultimum, the “% control Pythium ultimum 20 ppm” value was “D”. The “% control Phytophthora cinnamomi 20 ppm” value with Phytophthora cinnamomi is “B (from 50 to 99% control)”.
As for `Cn1nnnc1-n1c(OCc2cccc(-c3ccccc3)n2)nc2ccccc21` [Example 32, 1-(1-Methyl-1H-tetrazol-5-yl)-2-((6-phenylpyridin-2-yl)methoxy)-1H-benzo[d]imidazole], the “EC50 Phytophthora spp. (Phytophthora cactorum)” value in the experiment with Phytophthora cactorum [1] is “H”. In addition, the inhibition of growth at 2 ppm in the experiment on Pythium ultimum is less than 50%.
In the case of `Clc1cncnc1-c1c(OCc2ccccn2)[nH]c2ccccc12` [Example 33, 3-(5-Chloropyrimidin-4-yl)-2-(pyridin-2-ylmethoxy)-1H-indole], in the experiment on Pythium ultimum, the inhibition of growth at 20 ppm is less than 50%. Besides, the “% control Phytophthora cinnamomi 20 ppm” value in the experiment with Phytophthora cinnamomi is “B (from 50 to 99% control)”.
Consider `Cn1nnnc1-n1c(COc2ccccn2)nc2ccccc21` [Example 34, 1-(1-Methyl-1H-tetrazol-5-yl)-2-((pyridin-2-yloxy)methyl)-1H-benzo[d]imidazole], for which the “EC50 Phytophthora spp. (Phytophthora cactorum)” value in the experiment on Phytophthora cactorum [1] is “H”. Moreover, the “% control Pythium ultimum 2 ppm” value with Pythium ultimum is recorded as “D”.
Regarding `Cn1nnnc1-n1c(OCc2cccc(NCc3cccnc3)n2)nc2ccccc21` [Example 41], the “EC50 Phytophthora spp. (Phytophthora cactorum)” value in the experiment with Phytophthora cactorum [2] is given as “G”. Moreover, in the experiment with Pythium ultimum, the “% control Pythium ultimum 2 ppm” value is “D”.
In the case of `Cn1nnnc1-n1c(OCc2cccc(NCc3ccc(C#N)cc3)n2)nc2ccccc21` [Example 46], the “EC50 Phytophthora spp. (Phytophthora cactorum)” value in the experiment with Phytophthora cactorum [2] is “G”. The inhibition of growth at 2 ppm with Pythium ultimum fell in the range of 50 to 99%.
On to `CN(C)c1cccc(COc2nc3ccccc3n2-c2nnnn2C)n1` [Example 49, N,N-Dimethyl-6-(((1-(1-methyl-1H-tetrazol-5-yl)-1H-benzo[d]imidazol-2-yl)oxy)methyl)pyridin-2-amine], for which the “EC50 Phytophthora spp. (Phytophthora cactorum)” value in the experiment with Phytophthora cactorum [1] is listed as “H”. Moreover, the “% control Pythium ultimum 2 ppm” value with Pythium ultimum is reported as “D”.
Turning to `COc1cccc(COc2nc3ccccc3n2-c2nnnn2C)n1` [Example 52], the “EC50 Phytophthora spp. (Phytophthora cactorum)” value in the experiment with Phytophthora cactorum [1] was “H”. Besides, the “% control Pythium ultimum 2 ppm” value in the experiment with Pythium ultimum is on record as “D”.
For `CC(C)CCOc1cccc(COc2nc3ccccc3n2-c2nnnn2C)n1` [Example 53], in that order: “H” and “D”.
For `CSc1cccc(COc2nc3ccccc3n2-c2nnnn2C)n1` [Example 54], in that order: “H” and “D”.
For `Cn1nnnc1-n1c(OCc2ccc(N)cn2)nc2ccccc21` [Example 57], in that order: “H” and “D”.
For the molecule `Cn1nnnc1-n1c(OCc2cccc(S(C)(=O)=O)n2)nc2ccccc21` [Example 58, 1-(1-Methyl-1H-tetrazol-5-yl)-2-((6-(methylsulfonyl)pyridin-2-yl)methoxy)-1H-benzo[d]imidazole], in the experiment on Phytophthora cactorum [1], the “EC50 Phytophthora spp. (Phytophthora cactorum)” value is reported as “H”. Besides, the “% control Pythium ultimum 2 ppm” value in the experiment with Pythium ultimum is “D”.
In the case of `Cn1nnnc1-n1c(OCc2ccc3ccccc3n2)nc2c(Cl)cccc21` [Example 67], the “EC50 Phytophthora spp. (Phytophthora cactorum)” value with Phytophthora cactorum [2] is listed as “G”. Moreover, the inhibition of growth at 2 ppm with Pythium ultimum is greater than 99%.
With `COCc1cccc(COc2nc3c(Cl)cccc3n2-c2nnnn2C)n1` [Example 72], the “EC50 Phytophthora spp. (Phytophthora cactorum)” value in the experiment on Phytophthora cactorum [1] is on record as “H”. In addition, in the experiment on Pythium ultimum, the inhibition of growth at 2 ppm was less than 50%.
